Values of other authors in patent US3955959A, “Herbicide for use in transplanted rice” (priority 1974, dated 1976).

Legend:
rice = conditions: prior art; cited from earlier work
weeds in rice fields = conditions: prior art; cited from earlier work

| SMILES | crop safety (rice) | spectrum of weed control (weeds in rice fields) |
| --- | --- | --- |
| CC(C)Oc1cc(-n2nc(C(C)(C)C)oc2=O)c(Cl)cc1Cl [2-tert-butyl-4-(2,4-dichloro-5-isopropyloxyphenyl)-5-oxo-1,3,4-oxadiazoline] | marginal crop safety | – |
| CCSC(=O)N1CCCCCC1 [S-ethyl hexahydro-1H-azepine-1-carbothioate] | – | narrow spectrum of weed control |
